Measurements published in patent US12673946B2, “Pyrimidin-4(3H)-one derivatives as TRPV4 antagonists” (RaQualia Pharma Inc., priority 2020, dated 2026).

Target: T1, human TRPV4 (Homo sapiens, UniProt Q9HBA0)
T1 construct: host or cells: tetracycline-inducible Flp-In T-REx 293 cells
Experiment: Hypotonicity-induced Ca2+ influx (Fluo-4, FDSS)
Type: cell-based
Outline: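 Flp-In T-REx 293 cells with tetracycline-induced human TRPV4, loaded with Fluo-4 for 60 min at 25 °C. Compound added 5 min before hypotonic mannitol/CaCl2 solution. Ca2+ signal recorded for 4.5 min on FDSS.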

[1] = Flp-In T-REx 293 cells expressing human TRPV4, examples listed under heading 'Human IC50<50 nM'
[2] = Flp-In T-REx 293 cells stably expressing human TRPV4, compounds listed by potency bin (<10 nM Tables 96-1/96-2, <3 nM Table 97)

T1 sequence (Q9HBA0 whole entry): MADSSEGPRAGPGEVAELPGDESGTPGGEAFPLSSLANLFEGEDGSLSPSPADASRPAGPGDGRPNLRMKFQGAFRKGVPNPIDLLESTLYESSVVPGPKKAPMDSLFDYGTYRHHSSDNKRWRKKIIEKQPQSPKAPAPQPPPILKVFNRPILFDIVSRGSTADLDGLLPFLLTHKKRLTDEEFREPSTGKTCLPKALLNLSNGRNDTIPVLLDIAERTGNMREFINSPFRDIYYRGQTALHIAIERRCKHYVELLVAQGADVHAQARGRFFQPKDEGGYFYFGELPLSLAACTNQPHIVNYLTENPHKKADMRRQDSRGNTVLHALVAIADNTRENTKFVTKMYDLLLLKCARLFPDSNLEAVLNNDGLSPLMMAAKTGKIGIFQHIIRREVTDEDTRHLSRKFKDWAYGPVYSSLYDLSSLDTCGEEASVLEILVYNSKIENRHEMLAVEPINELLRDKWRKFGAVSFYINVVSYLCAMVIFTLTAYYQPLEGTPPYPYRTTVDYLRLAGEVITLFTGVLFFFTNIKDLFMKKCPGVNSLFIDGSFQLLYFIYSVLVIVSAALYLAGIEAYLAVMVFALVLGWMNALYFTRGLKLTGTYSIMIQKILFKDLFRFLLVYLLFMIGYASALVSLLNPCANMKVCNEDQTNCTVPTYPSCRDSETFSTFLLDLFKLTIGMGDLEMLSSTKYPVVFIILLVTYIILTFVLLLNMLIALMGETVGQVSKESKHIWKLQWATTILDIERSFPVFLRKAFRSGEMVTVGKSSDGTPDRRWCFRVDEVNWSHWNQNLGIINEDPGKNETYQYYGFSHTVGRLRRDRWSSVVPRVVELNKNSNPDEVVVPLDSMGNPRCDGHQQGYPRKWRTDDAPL

SMILES	IC50 [1]	IC50 [2]
O=C([C@H](O)c1cccc(Cl)c1)N1CCCc2nc(C3(c4cccc(-c5ccc(C(F)(F)F)cc5)c4)CC3)[nH]c(=O)c2C1 [40-8]	< 50 nM	< 10 nM
O=C([C@H](O)c1cccc(Cl)c1)N1CCCc2nc(C3(c4cccc(-c5ccc(F)cc5)c4)CC3)[nH]c(=O)c2C1 [40-9]	< 50 nM	< 3 nM
Cn1ncc2c(-c3cccc(C4(c5nc6c(c(=O)[nH]5)CN(C(=O)[C@H](O)c5cccc(Cl)c5)CCC6)CC4)c3)cccc21 [40-10]	< 50 nM	< 3 nM
O=C([C@H](O)c1cccc(Cl)c1)N1CCCc2nc(C3(c4cccc(-c5csc6ccccc56)c4)CC3)[nH]c(=O)c2C1 [40-11]	< 50 nM	< 3 nM
Cn1ncc2cc(-c3cccc(C4(c5nc6c(c(=O)[nH]5)CN(C(=O)[C@H](O)c5cccc(Cl)c5)CCC6)CC4)c3)ccc21 [40-12]	< 50 nM	< 3 nM
O=C([C@H](O)c1cccc(Cl)c1)N1CCCc2nc(C3(c4cccc(-c5cnn(C6CC6)c5)c4)CC3)[nH]c(=O)c2C1 [40-13]	< 50 nM	< 10 nM
COc1cc(-c2cccc(C3(c4nc5c(c(=O)[nH]4)CN(C(=O)[C@H](O)c4cccc(Cl)c4)CCC5)CC3)c2)ccn1 [40-14]	< 50 nM	< 3 nM
N#CC1(c2ccc(-c3cccc(C4(c5nc6c(c(=O)[nH]5)CN(C(=O)[C@H](O)c5cccc(Cl)c5)CCC6)CC4)c3)cc2)CC1 [40-15]	< 50 nM	< 3 nM
O=C([C@H](O)c1cccc(Cl)c1)N1CCCc2nc(C3(c4cccc(-c5cc6ccccc6o5)c4)CC3)[nH]c(=O)c2C1 [40-17]	< 50 nM	< 3 nM
O=C([C@H](O)c1cccc(Cl)c1)N1CCCc2nc(C3(c4cccc(-c5cc6ccccc6s5)c4)CC3)[nH]c(=O)c2C1 [40-18]	< 50 nM	< 10 nM
O=C([C@H](O)c1cccc(Cl)c1)N1CCCc2nc(C3(c4cccc(-c5coc6ccccc56)c4)CC3)[nH]c(=O)c2C1 [40-19]	< 50 nM	< 3 nM
O=C([C@H](O)c1cccc(Cl)c1)N1CCCc2nc(C3(c4cccc(C5=CCCCC5)c4)CC3)[nH]c(=O)c2C1 [40-20]	< 50 nM	< 3 nM
N#Cc1cccc(-c2cccc(C3(c4nc5c(c(=O)[nH]4)CN(C(=O)[C@H](O)c4cccc(Cl)c4)CCC5)CC3)c2)c1 [40-21]	< 50 nM	< 3 nM
COCCOc1cccc(-c2cccc(C3(c4nc5c(c(=O)[nH]4)CN(C(=O)[C@H](O)c4cccc(Cl)c4)CCC5)CC3)c2)c1 [40-22]	< 50 nM	< 3 nM
O=C([C@H](O)c1cccc(C(F)(F)F)c1)N1CCCc2nc(C3(c4cc(-c5ccccc5)cs4)CC3)[nH]c(=O)c2C1 [41-1]	< 50 nM	< 3 nM
O=C([C@H](O)c1cccc(C(F)(F)F)c1)N1CCCc2nc(C3(c4cc(-c5cccnc5)cs4)CC3)[nH]c(=O)c2C1 [41-2]	< 50 nM	–
O=C([C@H](O)c1cccc(C(F)(F)F)c1)N1CCCc2nc(C3(c4cc(-c5cnsc5)cs4)CC3)[nH]c(=O)c2C1 [41-3]	< 50 nM	< 10 nM
O=C([C@H](O)c1cccc(C(F)(F)F)c1)N1CCCc2nc(C3(c4cccc(-c5cnsc5)c4)CC3)[nH]c(=O)c2C1 [42-1]	< 50 nM	< 3 nM
COc1cc(-c2cccc(C3(c4nc5c(c(=O)[nH]4)CN(C(=O)[C@H](O)c4cccc(C(F)(F)F)c4)CCC5)CC3)c2)ccn1 [42-2]	< 50 nM	< 3 nM
O=C([C@H](O)c1cccc(C(F)(F)F)c1)N1CCCc2nc(C3(c4cccc(-c5cnc(N6CCCC6)nc5)c4)CC3)[nH]c(=O)c2C1 [42-3]	< 50 nM	< 3 nM
COCCOc1cccc(-c2cccc(C3(c4nc5c(c(=O)[nH]4)CN(C(=O)[C@H](O)c4cccc(C(F)(F)F)c4)CCC5)CC3)c2)c1 [42-4]	< 50 nM	< 3 nM
N#Cc1cccc(-c2cccc(C3(c4nc5c(c(=O)[nH]4)CN(C(=O)[C@H](O)c4cccc(C(F)(F)F)c4)CCC5)CC3)c2)c1 [42-5]	< 50 nM	< 3 nM
O=C([C@H](O)c1cccc(C(F)(F)F)c1)N1CCCc2nc(C3(c4cccc(-c5cnn(C6CC6)c5)c4)CC3)[nH]c(=O)c2C1 [42-6]	< 50 nM	< 3 nM
COc1ccc(-c2cccc(C3(c4nc5c(c(=O)[nH]4)CN(C(=O)[C@H](O)c4cccc(C(F)(F)F)c4)CCC5)CC3)c2)cn1 [42-7]	< 50 nM	< 3 nM
O=C([C@H](O)c1cccc(C(F)(F)F)c1)N1CCCc2nc(C3(c4cccc(-c5cccnc5)c4)CC3)[nH]c(=O)c2C1 [42-8]	< 50 nM	< 3 nM
O=C(c1cccc(-c2cccc(C3(c4nc5c(c(=O)[nH]4)CN(C(=O)[C@H](O)c4cccc(C(F)(F)F)c4)CCC5)CC3)c2)c1)N1CCCCC1 [42-9]	< 50 nM	< 3 nM

SMILES	IC50 [1]	IC50 [2]
CC1CCN(c2ccc(-c3cccc(C4(c5nc6c(c(=O)[nH]5)CN(C(=O)[C@H](O)c5cccc(C(F)(F)F)c5)CCC6)CC4)c3)cn2)CC1 [42-10]	< 50 nM	< 3 nM
CN(C)c1ccc(-c2cccc(C3(c4nc5c(c(=O)[nH]4)CN(C(=O)[C@H](O)c4cccc(C(F)(F)F)c4)CCC5)CC3)c2)cc1 [42-11]	< 50 nM	< 3 nM
O=C([C@H](O)c1cccc(C(F)(F)F)c1)N1CCCc2nc(C3(c4cccc(-c5cnn(C6CCC6)c5)c4)CC3)[nH]c(=O)c2C1 [42-12]	< 50 nM	< 3 nM
CN(C)c1ccc(-c2cccc(C3(c4nc5c(c(=O)[nH]4)CN(C(=O)[C@H](O)c4cccc(C(F)(F)F)c4)CCC5)CC3)c2)cn1 [42-13]	< 50 nM	< 3 nM
Cn1c(=O)oc2cc(-c3cccc(C4(c5nc6c(c(=O)[nH]5)CN(C(=O)[C@H](O)c5cccc(C(F)(F)F)c5)CCC6)CC4)c3)ccc21 [42-14]	< 50 nM	< 3 nM
CS(=O)(=O)c1cccc(-c2cccc(C3(c4nc5c(c(=O)[nH]4)CN(C(=O)[C@H](O)c4cccc(C(F)(F)F)c4)CCC5)CC3)c2)c1 [42-15]	< 50 nM	< 3 nM
O=C([C@H](O)c1cccc(C(F)(F)F)c1)N1CCCc2nc(C3(c4cccc(-c5ccccc5)c4)CC3)[nH]c(=O)c2C1 [42-16]	< 50 nM	< 10 nM
O=C([C@H](O)c1cccc(C(F)(F)F)c1)N1CCCc2nc(C3(c4cccc(-c5ccncc5)c4)CC3)[nH]c(=O)c2C1 [42-17]	< 50 nM	< 10 nM
CN(C)S(=O)(=O)c1ccc(-c2cccc(C3(c4nc5c(c(=O)[nH]4)CN(C(=O)[C@H](O)c4cccc(C(F)(F)F)c4)CCC5)CC3)c2)cc1 [42-18]	< 50 nM	< 10 nM
N#Cc1cncc(-c2cccc(C3(c4nc5c(c(=O)[nH]4)CN(C(=O)[C@H](O)c4cccc(C(F)(F)F)c4)CCC5)CC3)c2)c1 [42-19]	< 50 nM	< 10 nM
Cn1ncc2cc(-c3cccc(C4(c5nc6c(c(=O)[nH]5)CN(C(=O)[C@H](O)c5cccc(C(F)(F)F)c5)CCC6)CC4)c3)ccc21 [42-20]	< 50 nM	< 10 nM
O=C([C@H](O)c1cccc(C(F)(F)F)c1)N1CCCc2nc(C3(c4cccc(-c5cnn(C(F)F)c5)c4)CC3)[nH]c(=O)c2C1 [42-21]	< 50 nM	< 10 nM
O=C([C@H](O)c1cccc(C(F)(F)F)c1)N1CCCc2nc(C3(c4cccc(-c5ccc(C6(O)CCOCC6)cc5)c4)CC3)[nH]c(=O)c2C1 [42-22]	< 50 nM	< 10 nM
COCCn1cc(-c2cccc(C3(c4nc5c(c(=O)[nH]4)CN(C(=O)[C@H](O)c4cccc(C(F)(F)F)c4)CCC5)CC3)c2)cn1 [42-23]	< 50 nM	< 10 nM
Cn1ncc2c(-c3cccc(C4(c5nc6c(c(=O)[nH]5)CN(C(=O)[C@H](O)c5cccc(C(F)(F)F)c5)CCC6)CC4)c3)cccc21 [42-24]	< 50 nM	< 10 nM
O=C([C@H](O)c1cccc(C(F)(F)F)c1)N1CCCc2nc(C3(c4cccc(-c5cncs5)c4)CC3)[nH]c(=O)c2C1 [42-25]	< 50 nM	< 10 nM
Cn1nccc1-c1cccc(C2(c3nc4c(c(=O)[nH]3)CN(C(=O)[C@H](O)c3cccc(C(F)(F)F)c3)CCC4)CC2)c1 [42-26]	< 50 nM	< 10 nM
Cn1cc(-c2cccc(C3(c4nc5c(c(=O)[nH]4)CN(C(=O)[C@H](O)c4cccc(C(F)(F)F)c4)CCC5)CC3)c2)cn1 [42-27]	< 50 nM	< 10 nM
O=C([C@H](O)c1cccc(C(F)(F)F)c1)N1CCCc2nc(C3(c4cccc(-c5csc6ccccc56)c4)CC3)[nH]c(=O)c2C1 [42-28]	< 50 nM	< 10 nM
O=C([C@H](O)c1cccc(C(F)(F)F)c1)N1CCCc2nc(C3(c4cccc(-c5cc6ccccc6s5)c4)CC3)[nH]c(=O)c2C1 [42-29]	< 50 nM	< 10 nM
O=C([C@H](O)c1cccc(C(F)(F)F)c1)N1CCCc2nc(C3(c4cccc(-c5cnco5)c4)CC3)[nH]c(=O)c2C1 [42-30]	< 50 nM	< 10 nM
CN(C)C(=O)c1cccc(-c2cccc(C3(c4nc5c(c(=O)[nH]4)CN(C(=O)[C@H](O)c4cccc(C(F)(F)F)c4)CCC5)CC3)c2)c1 [42-31]	< 50 nM	< 10 nM
CNc1cc(-c2cccc(C3(c4nc5c(c(=O)[nH]4)CN(C(=O)[C@H](O)c4cccc(C(F)(F)F)c4)CCC5)CC3)c2)ccn1 [42-32]	< 50 nM	< 10 nM
O=C([C@H](O)c1cccc(C(F)(F)F)c1)N1CCCc2nc(C3(c4cccc(-c5cncnc5)c4)CC3)[nH]c(=O)c2C1 [42-33]	< 50 nM	–
Cn1ccc(-c2cccc(C3(c4nc5c(c(=O)[nH]4)CN(C(=O)[C@H](O)c4cccc(C(F)(F)F)c4)CCC5)CC3)c2)n1 [42-34]	< 50 nM	–
O=C([C@H](O)c1cccc(C(F)(F)F)c1)N1CCCc2nc(C3(c4cccc(C5=CCC(C(F)(F)F)CC5)c4)CC3)[nH]c(=O)c2C1 (some centres unmarked) [42-35]	< 50 nM	< 10 nM
